Values after ≈ are worked out from the molar mass of the structure shown. Read-outs that look alike come from different tables or passages of the source. Non-standard residues stand in square brackets, D forms with d. Residues, ends and D or L forms follow the SMILES beside them. No end group written: not given here.
Experiments:
[1] = test system: S. typhimurium 14028S; format: cell-based, Salmonella typhimurium; details: Table 12
[2] = test system: Candida albicans 105; format: cell-based; details: Table 13; in µg/mL
[3] = test system: Candida glabrata ATCC15126; assay: Antimicrobial assays II, NCCLS broth microdilution MIC; format: cell-based; details: in µg/mL
[4] = test system: E. coli UB1005; format: cell-based, Escherichia coli; details: Table 12
[5] = test system: P. aeruginosa H374; format: cell-based, Pseudomonas aeruginosa; details: in µg/mL
[6] = test system: S. aureus (MRSA); format: cell-based, Staphylococcus aureus; details: Table 13, strain SAP0017; in µg/mL
[7] = test system: Pseudomonas aeruginosa H187; format: cell-based; details: in µg/mL
[8] = test system: S. epidermidis C621; format: cell-based, Staphylococcus epidermidis; details: Table 13; in µg/mL
[9] = test system: Pseudomonas aeruginosa 105663; format: cell-based; details: Table 9; in µg/mL
[10] = test system: Pseudomonas aeruginosa 100609; format: cell-based; details: Table 9; in µg/mL

| Compound | MIC S. typhimurium 14028S [1] | MIC C. albicans 105 [2] | MIC C. glabrata ATCC15126 ([3]; Table 13) | MIC E. coli UB1005 [4] | MIC P. aeruginosa H374 ([5]; Table 9) | MIC P. aeruginosa H374 ([5]; Table 12) | MIC S. aureus SAP0017 [6] | MIC P. aeruginosa H187 ([7]; Table 9) | MIC P. aeruginosa H187 ([7]; Table 12) | MIC S. epidermis C621 [8] | MIC P. aeruginosa Tb 105663 [9] | MIC P. aeruginosa Tb 100609 [10] | MIC C. glabrata ATCC15126 ([3]; Table 8) | MIC P. aeruginosa H187 ([7]; Table 8) |
| --- | --- | --- | --- | --- | --- | --- | --- | --- | --- | --- | --- | --- | --- | --- |
| FAKKLAKKLKKLAKKLAKKWKL-OH [P72 (48)] | 8 µg/mL | 32 | 64 | 2 µg/mL | 4 | 4 | 16 | 8 | 8 | 4 | 8 | 8 |  |  |
| FALLKALLKKAL-NH2 [P177 (138)] | 16 µg/mL | 16 | 16 | 8 µg/mL | 16 | 16 | 8 | 16 | 16 | 4 | 32 | 32 |  |  |
| FAKLLALALKKAL-NH2 [P97 (165)] | 16 µg/mL | 16 | 16 | 8 µg/mL | 8 | 8 | 8 | 16 | 16 | 4 | 16 | 16 |  |  |
| FALKALKKLKKALKKAL-NH2 [P153 (115)] | 8 µg/mL | 16 | 16 | 8 µg/mL | 4 | 4 | 16 | 8 | 8 | 4 | 8 | 8 |  |  |
| FAKLLAKALKKLL-NH2 [P55 (35)] | 4 µg/mL | 16 | 8 | 4 µg/mL | 8 | 8 | 4 | 8 | 8 | 2 | 16 | 8 |  |  |
| CC(C)C[C@H](NC(=O)[C@H](C)NC(=O)[C@H](CC(C)C)NC(=O)[C@H](CCCCN)NC(=O)[C@H](C)NC(=O)[C@H](CC(C)C)NC(=O)[C@H](CCCCN)NC(=O)[C@H](CCCCN)NC(=O)[C@H](C)NC(=O)[C@H](CC(C)C)NC(=O)[C@H](CCCCN)NC(=O)[C@H](C)NC(=O)[C@H](CC(C)C)NC(=O)[C@H](CCCCN)NC(=O)[C@H](CCCCN)NC(=O)[C@H](C)NC(=O)[C@@H](N)Cc1ccccc1)C(N)=O [P35 (17)] | 4 µg/mL (≈ 2.16 µM) | 32 | 16 | 2 µg/mL (≈ 1.08 µM) | 8 | 8 | 8 | 8 | 8 | 4 | 4 | 4 |  |  |
| VALALKALKKLLKKLKKLAKKAL-NH2 [P510 (161)] | 16 µg/mL | 32 | 64 | 8 µg/mL | 8 | 8 | 8 | 8 | 8 | 4 | 16 | 16 |  |  |
| FAKLLAKLAKKLL-NH2 [P43 (25)] | 8 µg/mL | 8 | 16 | 8 µg/mL | 8 | 8 | 4 | 8 | 8 | 2 | 8 | 8 |  |  |
| FAKKLAKLALKLAKL-NH2 [P44 (26)] | 4 µg/mL | 8 | 16 | 1 µg/mL | 8 | 8 | 8 | 8 | 8 | 4 | 16 | 8 |  |  |
| CC(C)C[C@H](NC(=O)[C@H](C)NC(=O)[C@H](CCCCN)NC(=O)[C@H](CCCCN)NC(=O)[C@H](CC(C)C)NC(=O)[C@H](C)NC(=O)[C@H](CCCCN)NC(=O)[C@H](CCCCN)NC(=O)[C@H](CC(C)C)NC(=O)[C@@H](CCCCN)NC(=O)[C@@H](CCCCN)NC(=O)[C@H](CC(C)C)NC(=O)[C@H](C)NC(=O)[C@H](CCCCN)NC(=O)[C@H](CCCCN)NC(=O)[C@H](CC(C)C)NC(=O)[C@H](C)NC(=O)[C@H](CCCCN)NC(=O)[C@H](CC(C)C)NC(=O)[C@H](C)NC(=O)[C@H](CC(C)C)NC(=O)[C@H](C)NC(=O)[C@@H](N)Cc1ccccc1)C(=O)O [P37 (19)] (H-FALALKALKKAL[dK][dK]LKKALKKAL-OH; N-terminus assumed) | 8 µg/mL (≈ 3.15 µM) | 32 | 32 | 4 µg/mL (≈ 1.58 µM) | 8 | 8 | 8 | 8 | 8 | 4 | 16 | 16 |  |  |
| FAKFLAKFLKKAL-NH2 [P111 (75)] | 16 µg/mL | 32 | 32 | 16 µg/mL | 8 | 8 | 8 | 8 | 8 | 4 | 32 | 16 |  |  |
| FAKLLAKLAKKVL-NH2 [P124 (86)] | 16 µg/mL | 16 | 16 | 16 µg/mL | 16 | 16 | 8 | 32 | 32 | 4 | 64 | 64 |  |  |
| CC(C)C[C@H](NC(=O)[C@H](C)NC(=O)[C@H](CC(C)C)NC(=O)[C@H](C)NC(=O)[C@H](CC(C)C)NC(=O)[C@H](CCCCN)NC(=O)[C@H](C)NC(=O)[C@H](CC(C)C)NC(=O)[C@H](CCCCN)NC(=O)[C@H](CCCCN)NC(=O)[C@H](C)NC(=O)[C@H](CC(C)C)NC(=O)[C@H](CCCCN)NC(=O)[C@H](C)NC(=O)[C@H](CC(C)C)NC(=O)[C@H](CCCCN)NC(=O)[C@H](CCCCN)NC(=O)[C@H](C)NC(=O)[C@@H](N)C(C)C)C(N)=O [P504 (155)] | 4 µg/mL (≈ 2.01 µM) | 64 | 64 | 4 µg/mL (≈ 2.01 µM) | 8 | 8 | 4 | 8 | 8 | 4 | 16 | 8 |  |  |
| FAKLLAKALKKFAL-NH2 [P119 (81)] | 8 µg/mL | 16 | 16 | 4 µg/mL | 8 | 8 | 8 | 16 | 16 | 4 | 16 | 16 |  |  |
| KWKLFKKKTKLFKKFAKKLAKKL-NH2 [P73 (49)] | 16 µg/mL | 32 | 128 | 8 µg/mL | 8 | 8 | 16 | 16 | 16 | 4 | 16 | 16 |  |  |
| FAKKLAKLAKKALAL-NH2 [P39 (21)] |  |  |  |  | 16 |  |  | 32 |  |  | 32 | 32 | 16 | 32 |
| FAKKLAKKLKKLAKLALAK-NH2 [P41 (23)] |  |  |  |  | 4 |  |  | 8 |  |  | 8 | 8 | 32 | 8 |
| FAVGLRAIKRALKKLRRGVRKVAKDL-NH2 [P157 (119)] |  |  |  |  | 8 |  |  | 8 |  |  | 16 | 16 | 64 | 8 |

From patent US20050209157A1, “Short bioactive peptides and methods for their use” (priority 2001, published 2005)
